Results reported in paper PMC8861878 (The Journal of pharmacy and pharmacology, 2020).
Where “and” joins values, the source holds several entries; their conditions need not be identical. Equal entries are not always repeated.

Columns and labels:
[1] = Mono-oxidation of isobavachin by pooled HLM, enzyme kinetics; type: in vitro ADME, human
[2] = biological target: CYP2C19 (Homo sapiens, UniProt P33261); test: Inhibition of CYP2C19; type: in vitro ADME
[3] = Glucuronidation of isobavachin by MLM, enzyme kinetics; type: in vitro ADME, mice
[4] = biological target: T1, UGT1A9 (Homo sapiens, UniProt O60656); test: Glucuronidation of isobavachin by recombinant UGT1A9, enzyme kinetics; type: in vitro ADME; settings: formation of G1, substrate inhibition model
T1 sequence (O60656 26-530): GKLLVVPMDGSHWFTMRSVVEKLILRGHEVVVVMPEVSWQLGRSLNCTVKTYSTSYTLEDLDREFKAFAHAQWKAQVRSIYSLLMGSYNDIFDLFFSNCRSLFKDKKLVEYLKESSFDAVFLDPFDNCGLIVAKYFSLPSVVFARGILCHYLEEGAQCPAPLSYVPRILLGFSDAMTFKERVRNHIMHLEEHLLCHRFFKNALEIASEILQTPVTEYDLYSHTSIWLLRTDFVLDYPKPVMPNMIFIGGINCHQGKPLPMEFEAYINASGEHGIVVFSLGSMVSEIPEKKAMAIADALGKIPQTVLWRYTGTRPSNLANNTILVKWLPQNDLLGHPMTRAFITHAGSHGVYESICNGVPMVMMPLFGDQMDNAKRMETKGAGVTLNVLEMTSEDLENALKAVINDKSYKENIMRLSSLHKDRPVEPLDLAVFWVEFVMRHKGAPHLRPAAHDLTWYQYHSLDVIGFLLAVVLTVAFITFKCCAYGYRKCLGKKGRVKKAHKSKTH

[5] = biological target: CYP2C9 (Homo sapiens, UniProt P11712); test: Inhibition of CYP2C9; type: in vitro ADME
[6] = biological target: T2, UGT2B4 (Homo sapiens, UniProt P06133); test: Glucuronidation of isobavachin by recombinant UGT2B4, enzyme kinetics; type: in vitro ADME; settings: formation of G1; Michaelis–Menten model
T2 sequence (P06133 24-528): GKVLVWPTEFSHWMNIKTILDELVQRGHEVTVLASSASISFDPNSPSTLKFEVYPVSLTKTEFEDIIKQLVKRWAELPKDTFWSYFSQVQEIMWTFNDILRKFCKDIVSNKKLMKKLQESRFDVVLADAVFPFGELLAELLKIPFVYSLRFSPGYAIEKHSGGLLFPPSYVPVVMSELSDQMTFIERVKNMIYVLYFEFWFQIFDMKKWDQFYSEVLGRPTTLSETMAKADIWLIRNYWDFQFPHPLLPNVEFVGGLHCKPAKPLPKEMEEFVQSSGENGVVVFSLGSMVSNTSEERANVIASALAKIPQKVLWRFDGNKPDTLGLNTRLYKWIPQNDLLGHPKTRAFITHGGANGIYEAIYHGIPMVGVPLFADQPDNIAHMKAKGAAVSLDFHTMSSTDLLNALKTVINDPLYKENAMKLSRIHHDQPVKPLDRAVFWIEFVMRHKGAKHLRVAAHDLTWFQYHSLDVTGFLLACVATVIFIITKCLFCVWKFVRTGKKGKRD

[7] = Mono-oxidation of isobavachin by MLM, enzyme kinetics; type: in vitro ADME, mice
[8] = biological target: T3, UGT1A8 (Homo sapiens, UniProt Q9HAW9); test: Glucuronidation of isobavachin by recombinant UGT1A8, enzyme kinetics; type: in vitro ADME; settings: formation of G1, substrate inhibition model
T3 sequence (Q9HAW9 26-530): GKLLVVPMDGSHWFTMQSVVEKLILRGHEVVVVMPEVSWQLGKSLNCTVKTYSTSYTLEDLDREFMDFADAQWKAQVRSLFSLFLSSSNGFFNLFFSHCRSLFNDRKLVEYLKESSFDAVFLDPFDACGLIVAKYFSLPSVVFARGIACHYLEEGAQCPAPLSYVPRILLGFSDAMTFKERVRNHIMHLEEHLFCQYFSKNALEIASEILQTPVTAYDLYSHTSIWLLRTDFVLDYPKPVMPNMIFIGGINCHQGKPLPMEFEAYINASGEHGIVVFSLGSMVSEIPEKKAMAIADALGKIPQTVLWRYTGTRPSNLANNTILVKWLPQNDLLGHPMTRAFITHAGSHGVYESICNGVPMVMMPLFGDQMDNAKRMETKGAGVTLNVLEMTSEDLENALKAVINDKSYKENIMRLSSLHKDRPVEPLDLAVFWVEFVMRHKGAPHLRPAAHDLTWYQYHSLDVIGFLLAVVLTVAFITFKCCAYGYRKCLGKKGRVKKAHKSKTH

[9] = biological target: T4, UGT2B7 (Homo sapiens, UniProt P16662); test: Inhibition of UGT2B7; type: in vitro ADME
T4 sequence (P16662 24-529): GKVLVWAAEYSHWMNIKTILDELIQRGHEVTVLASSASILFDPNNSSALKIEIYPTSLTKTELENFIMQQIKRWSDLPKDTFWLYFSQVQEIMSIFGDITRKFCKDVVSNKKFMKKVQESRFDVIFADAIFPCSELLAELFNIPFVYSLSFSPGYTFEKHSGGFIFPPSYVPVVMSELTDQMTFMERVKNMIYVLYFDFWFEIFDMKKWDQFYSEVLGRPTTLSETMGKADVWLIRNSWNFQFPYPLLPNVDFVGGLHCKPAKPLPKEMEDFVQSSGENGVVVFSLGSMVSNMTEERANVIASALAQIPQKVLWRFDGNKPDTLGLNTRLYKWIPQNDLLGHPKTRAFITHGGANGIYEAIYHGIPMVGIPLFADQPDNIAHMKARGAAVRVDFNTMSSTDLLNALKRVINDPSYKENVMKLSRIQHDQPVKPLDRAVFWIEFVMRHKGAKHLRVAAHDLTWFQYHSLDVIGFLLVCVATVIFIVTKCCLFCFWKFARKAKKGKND

[10] = tested on: expressed CYP enzymes; test: Reaction phenotyping with expressed CYP enzymes; type: in vitro ADME, human; settings: isobavachin at 10 μM (Figure S4A)
[11] = based on the smallest AIC and SC values

Chain of CYP2C9 (P11712 whole entry): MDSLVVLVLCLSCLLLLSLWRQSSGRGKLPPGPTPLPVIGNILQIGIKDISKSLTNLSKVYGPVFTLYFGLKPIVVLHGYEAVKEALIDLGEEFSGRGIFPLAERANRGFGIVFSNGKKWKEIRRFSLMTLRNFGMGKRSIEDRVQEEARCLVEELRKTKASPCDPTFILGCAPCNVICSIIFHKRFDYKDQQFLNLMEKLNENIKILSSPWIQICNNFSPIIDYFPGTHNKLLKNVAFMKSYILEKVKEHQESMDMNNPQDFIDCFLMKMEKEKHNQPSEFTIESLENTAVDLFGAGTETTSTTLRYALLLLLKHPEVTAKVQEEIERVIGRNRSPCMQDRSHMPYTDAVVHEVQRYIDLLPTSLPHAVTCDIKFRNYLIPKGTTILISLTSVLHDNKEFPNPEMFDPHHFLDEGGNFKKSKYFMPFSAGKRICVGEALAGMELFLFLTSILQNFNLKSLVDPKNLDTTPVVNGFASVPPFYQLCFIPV
Chain of CYP2C19 (P33261 whole entry): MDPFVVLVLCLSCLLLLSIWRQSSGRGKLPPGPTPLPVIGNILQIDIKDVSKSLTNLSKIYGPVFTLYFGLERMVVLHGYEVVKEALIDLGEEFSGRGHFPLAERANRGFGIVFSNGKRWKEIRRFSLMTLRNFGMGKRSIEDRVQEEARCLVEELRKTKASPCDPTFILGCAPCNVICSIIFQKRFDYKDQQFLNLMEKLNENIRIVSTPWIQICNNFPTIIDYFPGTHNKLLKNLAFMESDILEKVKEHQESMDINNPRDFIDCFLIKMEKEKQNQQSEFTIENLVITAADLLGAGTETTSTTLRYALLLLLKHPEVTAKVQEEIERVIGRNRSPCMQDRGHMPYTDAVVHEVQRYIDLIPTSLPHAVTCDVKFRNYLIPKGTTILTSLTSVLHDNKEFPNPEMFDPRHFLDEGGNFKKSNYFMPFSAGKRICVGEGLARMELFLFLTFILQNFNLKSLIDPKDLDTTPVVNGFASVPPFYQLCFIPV

In the case of `CC(C)=CCc1c(O)ccc2c1O[C@H](c1ccc(O)cc1)CC2=O` [isobavachin], the “CLint (CLmax)” value ([1]; formation of M1, substrate inhibition model) is reported as 59.81 μl/min per mg and 59.81 ± 21.18 μl/min per mg, the “CLint (CLmax)” value ([1]; formation of M2, Michaelis–Menten model) is reported as 5.53 ± 0.93 μl/min per mg and the IC50 [2] is reported as 270 ± 70 nM. For the same compound, the residual activities ([2]; 10 μM isobavachin) was 0 % of the negative control, the Ki ([2]; substrate mephenytoin, competitive model (selected, smallest AIC and SC)) was 1550 nM and the Ki ([2]; substrate mephenytoin, mixed-type model (not selected)) was 1550 ± 530 nM. The Ki ([2]; substrate mephenytoin, non-competitive model (not selected)) was 3340 ± 490 nM, the Inhibition type [2, 11] was “competitive inhibition” and the α ([2]; substrate mephenytoin, mixed-type model) was >>1. The “CLint (CLmax)” value ([3]; formation of G1, Michaelis–Menten model) was 144.94 ± 11.20 μl/min per mg, the “CLint (CLmax)” value ([3]; formation of G2, substrate inhibition model) was 29.60 ± 9.00 μl/min per mg and the Ki ([4]; substrate inhibition constant) was 38390 ± 8880 nM. For the same compound, the “CLint (CLmax)” value [4] was 202.62 ± 48.80 μl/min per mg, the Vmax [4] was 3167.00 ± 426.4 pmol/min per mg and the IC50 [5] was 40 ± 5 nM. For the same compound, the residual activities ([5]; 10 μM isobavachin) was 1.04 % of the negative control, the Ki ([5]; substrate tolbutamide, mixed-type model (not selected)) was 270 ± 100 nM and the Ki ([5]; substrate tolbutamide, non-competitive model (selected, smallest AIC and SC)) was 220 ± 20 nM. For the same compound, the Inhibition type [5, 11] was “non-competitive inhibition mode”, the α ([5]; substrate tolbutamide, mixed-type model) was 0.70 ± 0.49 and the “CLint (CLmax)” value [6] was 30.59 ± 3.28 μl/min per mg. For the same compound, the Vmax [6] was 81.29 ± 2.05 pmol/min per mg, the “CLint (CLmax)” value ([7]; formation of M1, Michaelis–Menten model) was 35.46 μl/min per mg and 35.46 ± 5.98 μl/min per mg and the “CLint (CLmax)” value ([7]; formation of M2, substrate inhibition model) was 64.32 μl/min per mg and 64.32 ± 17.18 μl/min per mg. The “CLint (CLmax)” value ([7]; formation of M3, substrate inhibition model) was 47.43 μl/min per mg and 47.43 ± 7.99 μl/min per mg, the Ki ([8]; substrate inhibition constant) was 17040 ± 3360 nM and the “CLint (CLmax)” value [8] was 46.30 ± 11.05 μl/min per mg. For the same compound, the Vmax [8] was 1607.00 ± 241.00 pmol/min per mg, the IC50 [9] was 90 ± 10 nM and the residual activities ([9]; 10 μM isobavachin) was 19.32 % of the negative control. For the same compound, the Ki ([9]; substrate zidovudine, mixed-type model (not selected)) was 40 ± 10 nM, the Ki ([9]; substrate zidovudine, non-competitive model (selected, smallest AIC and SC)) was 50 ± 10 nM and the Inhibition type [9, 11] was “non-competitive inhibition mode”. The α ([9]; substrate zidovudine, mixed-type model) was 1.80 ± 0.93 and the “CYP isozymes participating in oxidation” value [10] was “CYP1A1, 1A2, 1B1, 2C8, 2C9, 2C19 and 2D6 all participated in the oxidation”.
